# Entries after “also recorded” stand apart in the source; their conditions may differ.
# Test system: bone marrow derived macrophages (BMDMs)
# Test: LPS-induced IL-1β secretion in BMDMs treated with IKK2 inhibitors (ELISA)
# Format: cell-based, mouse
# Experimental: Bone marrow was isolated from the tibiae and femurs of one WT and one Ripk1^D138N/D138N mouse (6-7 week old). Bone marrow from one leg of each mouse was immediately frozen Bone marrow cells from the other leg were spun down at 1200 rpm, for 5 min and seeded in 15 cm^2 non-treated cell culture plates in 20 ml of medium containing 10 ng/ml M-CSF. Cells were allowed to differentiate for six days and subsequently adherent BMDMs were lifted, counted and seeded at a density of 2×10^5 cells/well in a 48 well plate. The day after, cells were pretreated with different concentrations of the IKK2 inhibitors for 30 min before stimulation with 100 ng/ml LPS in a total volume of 250 μl. Each experimental condition was assayed in triplicate. 20-24 h later supernatants were removed, cleared from floating cells and were frozen until cytokine measurements. IL-1β concentration was determined with a specific ELISA (eBioscience) following the manufacturer's instructions.
# For the experiment with Nec1 the frozen bone marrow cells were used. After thawing, macrophages were differentiated as described above for fresh bone marrow cells. Necrostatin-1 (Nec-1) was added together with the IKK2 inhibitors during the 30 min pretreatment BMDMs were stimulated with LPS for 20-24 h and supernatants were kept for ELISA measurements. […]
Structure (SMILES),"amount of secreted IL-1β (LPS-induced, in BMDMs treated with IKK2 inhibitors) (Nec1 added together with IKK2 inhibitors during 30 min pretreatment, 100 ng/ml LPS for 20-24 h, FIG. 1B)","IL-1β secretion upon LPS stimulation (WT BMDMs pretreated 30 min with IKK2 inhibitor, then 100 ng/ml LPS for 20-24 h, IL-1β ELISA of supernatant)"
"CN1C(=O)C(Cc2c[nH]c3ccccc23)NC1=S (centres unmarked) [Necrostatin-1, 5-(1H-indo1-3-ylmethyl)-3-methyl-2-thioxo-4-imidazolidinone]",strongly diminished the LPS-induced production of IL-1β; also recorded: strongly reduced the amount of secreted IL-1β,
NC(=O)Nc1sc(-c2ccc(F)cc2)cc1C(N)=O [TPCA-1],,greater potency
